Among the data in the OligoGym collection are normalised inhibition (eCFP-eYFP dual reporter) values, retold here.

Oligonucleotides are given in HELM: sugar(base)linkage, 5' to 3'; d 2'-deoxyribose, r ribose, m 2'-O-methylribose, p phosphate. ss, as = sense and antisense strand

The target of this data set is UBE2K. Kind of data set: reporter assay of Huesken 2005. As to conditions: siRNA.
Also: test concentration or dose not given here.

In turn, “RNA1{r(C)p.r(C)p.r(G)p.r(G)p.r(U)p.r(U)p.r(U)p.r(A)p.r(U)p.r(C)p.r(A)p.r(C)p.r(U)p.r(A)p.r(A)p.r(A)p.r(A)p.r(U)p.r(A)p.d(T)p.d(T)}|RNA2{r(U)p.r(A)p.r(U)p.r(U)p.r(U)p.r(U)p.r(A)p.r(G)p.r(U)p.r(G)p.r(A)p.r(U)p.r(A)p.r(A)p.r(A)p.r(C)p.r(C)p.r(G)p.r(G)p.d(A)p.d(C)}$$$RNA1{StrandType:ss}|RNA2{StrandType:as}$” displayed a normalised inhibition (eCFP-eYFP dual reporter) of 89.7%. Then “RNA1{r(A)p.r(U)p.r(A)p.r(G)p.r(C)p.r(A)p.r(G)p.r(G)p.r(A)p.r(C)p.r(C)p.r(U)p.r(C)p.r(C)p.r(A)p.r(G)p.r(A)p.r(C)p.r(A)p.d(T)p.d(T)}|RNA2{r(U)p.r(G)p.r(U)p.r(C)p.r(U)p.r(G)p.r(G)p.r(A)p.r(G)p.r(G)p.r(U)p.r(C)p.r(C)p.r(U)p.r(G)p.r(C)p.r(U)p.r(A)p.r(U)p.d(T)p.d(T)}$$$RNA1{StrandType:ss}|RNA2{StrandType:as}$”, with 69.8%; and “RNA1{r(U)p.r(U)p.r(U)p.r(G)p.r(U)p.r(U)p.r(U)p.r(G)p.r(G)p.r(A)p.r(U)p.r(A)p.r(U)p.r(C)p.r(C)p.r(U)p.r(G)p.r(A)p.r(A)p.d(T)p.d(T)}|RNA2{r(U)p.r(U)p.r(C)p.r(A)p.r(G)p.r(G)p.r(A)p.r(U)p.r(A)p.r(U)p.r(C)p.r(C)p.r(A)p.r(A)p.r(A)p.r(C)p.r(A)p.r(A)p.r(A)p.d(T)p.d(A)}$$$RNA1{StrandType:ss}|RNA2{StrandType:as}$”, with 78.9%. Next, “RNA1{r(A)p.r(G)p.r(A)p.r(U)p.r(G)p.r(A)p.r(U)p.r(C)p.r(C)p.r(A)p.r(C)p.r(A)p.r(G)p.r(G)p.r(A)p.r(U)p.r(G)p.r(C)p.r(U)p.d(T)p.d(T)}|RNA2{r(A)p.r(G)p.r(C)p.r(A)p.r(U)p.r(C)p.r(C)p.r(U)p.r(G)p.r(U)p.r(G)p.r(G)p.r(A)p.r(U)p.r(C)p.r(A)p.r(U)p.r(C)p.r(U)p.d(G)p.d(G)}$$$RNA1{StrandType:ss}|RNA2{StrandType:as}$”: 68%; “RNA1{r(C)p.r(A)p.r(G)p.r(A)p.r(C)p.r(A)p.r(C)p.r(A)p.r(C)p.r(C)p.r(A)p.r(U)p.r(A)p.r(U)p.r(G)p.r(A)p.r(A)p.r(G)p.r(G)p.d(T)p.d(T)}|RNA2{r(C)p.r(C)p.r(U)p.r(U)p.r(C)p.r(A)p.r(U)p.r(A)p.r(U)p.r(G)p.r(G)p.r(U)p.r(G)p.r(U)p.r(G)p.r(U)p.r(C)p.r(U)p.r(G)p.d(G)p.d(A)}$$$RNA1{StrandType:ss}|RNA2{StrandType:as}$”: 72.8%. “RNA1{r(A)p.r(C)p.r(A)p.r(G)p.r(G)p.r(A)p.r(U)p.r(G)p.r(C)p.r(U)p.r(G)p.r(U)p.r(A)p.r(G)p.r(U)p.r(A)p.r(G)p.r(C)p.r(A)p.d(T)p.d(T)}|RNA2{r(U)p.r(G)p.r(C)p.r(U)p.r(A)p.r(C)p.r(U)p.r(A)p.r(C)p.r(A)p.r(G)p.r(C)p.r(A)p.r(U)p.r(C)p.r(C)p.r(U)p.r(G)p.r(U)p.d(G)p.d(G)}$$$RNA1{StrandType:ss}|RNA2{StrandType:as}$” registered a normalised inhibition (eCFP-eYFP dual reporter) of 89.9%. Next, “RNA1{r(G)p.r(U)p.r(A)p.r(C)p.r(A)p.r(A)p.r(A)p.r(C)p.r(A)p.r(A)p.r(A)p.r(A)p.r(U)p.r(C)p.r(C)p.r(C)p.r(G)p.r(A)p.r(A)p.d(T)p.d(T)}|RNA2{r(U)p.r(U)p.r(C)p.r(G)p.r(G)p.r(G)p.r(A)p.r(U)p.r(U)p.r(U)p.r(U)p.r(G)p.r(U)p.r(U)p.r(U)p.r(G)p.r(U)p.r(A)p.r(C)p.d(T)p.d(G)}$$$RNA1{StrandType:ss}|RNA2{StrandType:as}$”: 73.9%.

On to “RNA1{r(G)p.r(G)p.r(C)p.r(A)p.r(G)p.r(C)p.r(U)p.r(G)p.r(C)p.r(A)p.r(G)p.r(A)p.r(G)p.r(C)p.r(C)p.r(A)p.r(G)p.r(A)p.r(U)p.d(T)p.d(T)}|RNA2{r(A)p.r(U)p.r(C)p.r(U)p.r(G)p.r(G)p.r(C)p.r(U)p.r(C)p.r(U)p.r(G)p.r(C)p.r(A)p.r(G)p.r(C)p.r(U)p.r(G)p.r(C)p.r(C)p.d(A)p.d(A)}$$$RNA1{StrandType:ss}|RNA2{StrandType:as}$”, for which the normalised inhibition (eCFP-eYFP dual reporter) was 81.8%. Next, “RNA1{r(C)p.r(U)p.r(G)p.r(A)p.r(A)p.r(A)p.r(G)p.r(A)p.r(U)p.r(C)p.r(A)p.r(A)p.r(U)p.r(G)p.r(G)p.r(G)p.r(C)p.r(A)p.r(G)p.d(T)p.d(T)}|RNA2{r(C)p.r(U)p.r(G)p.r(C)p.r(C)p.r(C)p.r(A)p.r(U)p.r(U)p.r(G)p.r(A)p.r(U)p.r(C)p.r(U)p.r(U)p.r(U)p.r(C)p.r(A)p.r(G)p.d(G)p.d(A)}$$$RNA1{StrandType:ss}|RNA2{StrandType:as}$”: 79.2%; “RNA1{r(A)p.r(G)p.r(C)p.r(A)p.r(A)p.r(A)p.r(U)p.r(C)p.r(A)p.r(G)p.r(U)p.r(A)p.r(C)p.r(A)p.r(A)p.r(A)p.r(C)p.r(A)p.r(A)p.d(T)p.d(T)}|RNA2{r(U)p.r(U)p.r(G)p.r(U)p.r(U)p.r(U)p.r(G)p.r(U)p.r(A)p.r(C)p.r(U)p.r(G)p.r(A)p.r(U)p.r(U)p.r(U)p.r(G)p.r(C)p.r(U)p.d(A)p.d(C)}$$$RNA1{StrandType:ss}|RNA2{StrandType:as}$”: 77.8%.

As for “RNA1{r(A)p.r(A)p.r(A)p.r(A)p.r(U)p.r(A)p.r(U)p.r(G)p.r(G)p.r(C)p.r(A)p.r(U)p.r(C)p.r(C)p.r(U)p.r(A)p.r(A)p.r(U)p.r(A)p.d(T)p.d(T)}|RNA2{r(U)p.r(A)p.r(U)p.r(U)p.r(A)p.r(G)p.r(G)p.r(A)p.r(U)p.r(G)p.r(C)p.r(C)p.r(A)p.r(U)p.r(A)p.r(U)p.r(U)p.r(U)p.r(U)p.d(A)p.d(G)}$$$RNA1{StrandType:ss}|RNA2{StrandType:as}$”, the normalised inhibition (eCFP-eYFP dual reporter) amounted to 67.3%. Next, “RNA1{r(A)p.r(G)p.r(G)p.r(A)p.r(G)p.r(A)p.r(A)p.r(A)p.r(U)p.r(A)p.r(G)p.r(C)p.r(A)p.r(G)p.r(G)p.r(A)p.r(C)p.r(C)p.r(U)p.d(T)p.d(T)}|RNA2{r(A)p.r(G)p.r(G)p.r(U)p.r(C)p.r(C)p.r(U)p.r(G)p.r(C)p.r(U)p.r(A)p.r(U)p.r(U)p.r(U)p.r(C)p.r(U)p.r(C)p.r(C)p.r(U)p.d(C)p.d(T)}$$$RNA1{StrandType:ss}|RNA2{StrandType:as}$”: 69.4%; “RNA1{r(A)p.r(U)p.r(U)p.r(G)p.r(G)p.r(C)p.r(A)p.r(G)p.r(C)p.r(U)p.r(G)p.r(C)p.r(A)p.r(G)p.r(A)p.r(G)p.r(C)p.r(C)p.r(A)p.d(T)p.d(T)}|RNA2{r(U)p.r(G)p.r(G)p.r(C)p.r(U)p.r(C)p.r(U)p.r(G)p.r(C)p.r(A)p.r(G)p.r(C)p.r(U)p.r(G)p.r(C)p.r(C)p.r(A)p.r(A)p.r(U)p.d(A)p.d(G)}$$$RNA1{StrandType:ss}|RNA2{StrandType:as}$”: 85%. Substance “RNA1{r(U)p.r(U)p.r(C)p.r(C)p.r(G)p.r(U)p.r(C)p.r(A)p.r(C)p.r(A)p.r(G)p.r(G)p.r(G)p.r(G)p.r(C)p.r(U)p.r(A)p.r(U)p.r(U)p.d(T)p.d(T)}|RNA2{r(A)p.r(A)p.r(U)p.r(A)p.r(G)p.r(C)p.r(C)p.r(C)p.r(C)p.r(U)p.r(G)p.r(U)p.r(G)p.r(A)p.r(C)p.r(G)p.r(G)p.r(A)p.r(A)p.d(C)p.d(T)}$$$RNA1{StrandType:ss}|RNA2{StrandType:as}$” showed a normalised inhibition (eCFP-eYFP dual reporter) of 55.5%. Then “RNA1{r(G)p.r(C)p.r(U)p.r(G)p.r(C)p.r(A)p.r(A)p.r(U)p.r(G)p.r(A)p.r(C)p.r(U)p.r(C)p.r(U)p.r(C)p.r(C)p.r(G)p.r(C)p.r(A)p.d(T)p.d(T)}|RNA2{r(U)p.r(G)p.r(C)p.r(G)p.r(G)p.r(A)p.r(G)p.r(A)p.r(G)p.r(U)p.r(C)p.r(A)p.r(U)p.r(U)p.r(G)p.r(C)p.r(A)p.r(G)p.r(C)p.d(T)p.d(G)}$$$RNA1{StrandType:ss}|RNA2{StrandType:as}$”, with 87.1%. On to “RNA1{r(A)p.r(U)p.r(A)p.r(C)p.r(C)p.r(A)p.r(G)p.r(A)p.r(A)p.r(A)p.r(C)p.r(A)p.r(U)p.r(A)p.r(C)p.r(C)p.r(C)p.r(A)p.r(U)p.d(T)p.d(T)}|RNA2{r(A)p.r(U)p.r(G)p.r(G)p.r(G)p.r(U)p.r(A)p.r(U)p.r(G)p.r(U)p.r(U)p.r(U)p.r(C)p.r(U)p.r(G)p.r(G)p.r(U)p.r(A)p.r(U)p.d(T)p.d(T)}$$$RNA1{StrandType:ss}|RNA2{StrandType:as}$”, for which the normalised inhibition (eCFP-eYFP dual reporter) came to 76.3%. Then “RNA1{r(C)p.r(U)p.r(U)p.r(G)p.r(U)p.r(A)p.r(G)p.r(A)p.r(U)p.r(G)p.r(A)p.r(G)p.r(A)p.r(A)p.r(U)p.r(U)p.r(U)p.r(U)p.r(A)p.d(T)p.d(T)}|RNA2{r(U)p.r(A)p.r(A)p.r(A)p.r(A)p.r(U)p.r(U)p.r(C)p.r(U)p.r(C)p.r(A)p.r(U)p.r(C)p.r(U)p.r(A)p.r(C)p.r(A)p.r(A)p.r(G)p.d(A)p.d(T)}$$$RNA1{StrandType:ss}|RNA2{StrandType:as}$”, with 91.3%; and “RNA1{r(C)p.r(C)p.r(U)p.r(C)p.r(C)p.r(A)p.r(G)p.r(A)p.r(C)p.r(A)p.r(C)p.r(A)p.r(C)p.r(C)p.r(A)p.r(U)p.r(A)p.r(U)p.r(G)p.d(T)p.d(T)}|RNA2{r(C)p.r(A)p.r(U)p.r(A)p.r(U)p.r(G)p.r(G)p.r(U)p.r(G)p.r(U)p.r(G)p.r(U)p.r(C)p.r(U)p.r(G)p.r(G)p.r(A)p.r(G)p.r(G)p.d(T)p.d(C)}$$$RNA1{StrandType:ss}|RNA2{StrandType:as}$”, with 66.9%. Next, “RNA1{r(G)p.r(U)p.r(A)p.r(G)p.r(U)p.r(A)p.r(G)p.r(C)p.r(A)p.r(A)p.r(A)p.r(U)p.r(C)p.r(A)p.r(G)p.r(U)p.r(A)p.r(C)p.r(A)p.d(T)p.d(T)}|RNA2{r(U)p.r(G)p.r(U)p.r(A)p.r(C)p.r(U)p.r(G)p.r(A)p.r(U)p.r(U)p.r(U)p.r(G)p.r(C)p.r(U)p.r(A)p.r(C)p.r(U)p.r(A)p.r(C)p.d(A)p.d(G)}$$$RNA1{StrandType:ss}|RNA2{StrandType:as}$”: 92.1%; “RNA1{r(A)p.r(A)p.r(U)p.r(A)p.r(G)p.r(C)p.r(A)p.r(G)p.r(G)p.r(A)p.r(C)p.r(C)p.r(U)p.r(C)p.r(C)p.r(A)p.r(G)p.r(A)p.r(C)p.d(T)p.d(T)}|RNA2{r(G)p.r(U)p.r(C)p.r(U)p.r(G)p.r(G)p.r(A)p.r(G)p.r(G)p.r(U)p.r(C)p.r(C)p.r(U)p.r(G)p.r(C)p.r(U)p.r(A)p.r(U)p.r(U)p.d(T)p.d(C)}$$$RNA1{StrandType:ss}|RNA2{StrandType:as}$”: 56.1%.
